These results are taken from ChEMBL document CHEMBL3045274, “Xyloccensins QV, six new 8,9,30-phragmalin ortho ester antifeedants from the Chinese mangrove Xylocarpus granatum” (Tetrahedron, 2005).

Active and inactive are the calls of the source. No cut-off for these calls is given here.

The test concerns Mythimna separata. In words: Antifeedant activity against third instar larvae of Mythimna separata (Oriental armyworm) in compound treated leaf disk at 500 ppm. In kind it is functional, organism-based.
As to `COC(=O)C[C@@H]1[C@@]2(C)C[C@@]3(O)[C@@](O)([C@@H]2OC(C)=O)[C@@H]2O[C@]4(C)O[C@]5(C[C@@H](OC(C)=O)[C@@]6(C)C(=CC(=O)O[C@@H]6c6ccoc6)[C@]25O4)[C@@]13C`, the outcome was inactive.
For the molecule `COC(=O)[C@@H](O)[C@@H]1[C@@]2(C)C[C@@]3(O)[C@@](OC(C)=O)([C@@H]2OC(C)=O)[C@@H]2O[C@]4(C)O[C@]5(C[C@@H](OC(C)=O)[C@@]6(C)C(=CC(=O)O[C@@H]6c6ccoc6)[C@]25O4)[C@@]13C`, the result was inactive.
In the case of `COC(=O)[C@H](OC(C)=O)[C@H]1[C@]2(C)C[C@]3(O)[C@H]([C@H]2OC(C)=O)[C@H]2O[C@@]4(C)O[C@@]5(CC[C@@]6(C)[C@H](c7ccoc7)OC(=O)C[C@@]6(O)[C@@]25O4)[C@]13C` it was “inactive”; in that of `COC(=O)C[C@@H]1[C@@]2(C)C[C@@]3(O)[C@@](OC(C)=O)([C@@H]2OC(C)=O)[C@@H]2O[C@]4(C)O[C@]5(C[C@@H](OC(C)=O)[C@@]6(C)C(=CC(=O)O[C@@H]6c6ccoc6)[C@]25O4)[C@@]13C`, “inactive”.
For the molecule `COC(=O)[C@@H](O)[C@@H]1[C@@]2(C)C[C@@]3(O)[C@@](O)([C@@H]2OC(C)=O)[C@@H]2O[C@]4(C)O[C@]5(C[C@@H](OC(C)=O)[C@@]6(C)C(=CC(=O)O[C@@H]6c6ccoc6)[C@]25O4)[C@@]13C`, the result was inactive.
For `COC(=O)[C@@H](O)[C@@H]1[C@@]2(C)C[C@@]3(O)[C@H]([C@H]4O[C@]5(C)O[C@]6(C[C@@H](OC(C)=O)[C@@]7(C)C(=CC(=O)O[C@@H]7c7ccoc7)[C@]46O5)[C@@]13C)[C@@H]2OC(C)=O`, the result was inactive.
The entry for `COC(=O)[C@H](OC(C)=O)[C@H]1[C@]2(C)C[C@]3(O)[C@@](OC(C)=O)([C@H]4O[C@@]5(C)O[C@@]6(CC[C@@]7(C)[C@H](c8ccoc8)OC(=O)C[C@@]7(O)[C@@]46O5)[C@]13C)[C@H]2OC(C)=O` is “Active”.
In the case of `COC(=O)[C@@H](OC(C)=O)[C@@H]1[C@@]2(C)C[C@@]3(O)[C@@](O)([C@@H]2OC(C)=O)[C@@H]2O[C@]4(C)O[C@]5(C[C@@H](OC(C)=O)[C@@]6(C)C(=CC(=O)O[C@@H]6c6ccoc6)[C@]25O4)[C@@]13C`, the outcome was Active.
